# Measured values from ChEMBL document CHEMBL1201862, “PubChem BioAssay data set” (2004).
# Active and inactive are the calls of the source.
# Columns and labels:
# [1] = target: T1, Mannose-6-phosphate isomerase (Homo sapiens, UniProt P34949); test: Confirmation of compounds inhibiting phosphomannose isomerase (PMI) via a fluorescence intensity assay using a high concentration of mannose 6-phosphate. [Related pubchem assays (depositor defined):AID1209, AID1220, AID1545, AID1553, AID1620]
# T1 sequence (P34949 whole entry): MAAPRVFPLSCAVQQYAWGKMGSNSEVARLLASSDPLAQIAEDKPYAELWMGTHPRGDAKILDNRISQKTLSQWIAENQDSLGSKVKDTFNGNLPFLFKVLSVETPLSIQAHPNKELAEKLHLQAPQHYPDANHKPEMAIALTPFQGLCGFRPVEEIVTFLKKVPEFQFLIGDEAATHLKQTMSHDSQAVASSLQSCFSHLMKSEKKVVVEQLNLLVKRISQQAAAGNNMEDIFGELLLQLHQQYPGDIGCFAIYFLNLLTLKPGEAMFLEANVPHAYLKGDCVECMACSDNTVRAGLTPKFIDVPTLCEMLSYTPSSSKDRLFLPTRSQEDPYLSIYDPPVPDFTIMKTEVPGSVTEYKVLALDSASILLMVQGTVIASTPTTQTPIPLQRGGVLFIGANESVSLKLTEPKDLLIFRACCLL
# [2] = target: Alkaline phosphatase, placental type (Homo sapiens, UniProt P05187); test: PLAP enzyme inhibitors, confirmation, biochemical, luminescence (AID 1512); format: functional
# [3] = target: T1, Mannose-6-phosphate isomerase; test: PMI enzyme inhibitors, confirmation, biochemical, fluorescence intensity (AID 1535)
# cells = format: functional
# [4] = microbe, parasite or virus in culture; format: functional; conditions: Mycobacterium tuberculosis
# [5] = target: T2, Kappa-type opioid receptor (Homo sapiens, UniProt P41145); format: functional
# Beta-galactosidase = Beta-galactosidase (Escherichia coli, UniProt Q8VNN2); format: functional
# [6] = target: T2, Kappa-type opioid receptor; format: functional; remark: listed apart in the source
# [7] = THP-1 cell cytotoxicity, dose response, cytotoxicity control for non-replicating M. tuberculosis project (AID 489025); format: functional
# Caspase-3 = target: T3, Caspase-3 (Homo sapiens, UniProt P42574); test: procaspase-3 activators, dose response, biochemical, absorbance (AID 489014)
# T3 sequence (P42574 whole entry): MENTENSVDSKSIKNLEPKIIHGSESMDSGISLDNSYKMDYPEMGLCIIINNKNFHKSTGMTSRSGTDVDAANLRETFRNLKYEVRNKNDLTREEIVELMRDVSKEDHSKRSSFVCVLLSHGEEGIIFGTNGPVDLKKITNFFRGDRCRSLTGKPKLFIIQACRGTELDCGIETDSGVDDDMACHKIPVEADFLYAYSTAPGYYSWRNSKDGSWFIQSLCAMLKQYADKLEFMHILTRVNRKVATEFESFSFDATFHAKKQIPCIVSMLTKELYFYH
# [8] = Luminescence Cell-Based Dose Retest to Confirm Inhibitors of Cancer Stem Cells. [Related pubchem assays (depositor defined):AID2717, AID2721]; format: functional, Homo sapiens; conditions: Homo sapiens
# Caspase-7 = Caspase-7 (Homo sapiens, UniProt P55210); test: procaspase-7 activators, dose response, counter-screen for procaspase-3 activator project, biochemical, absorbance (AID 489013)
# [9] = target: T4, G-protein coupled receptor 55 (Homo sapiens, UniProt Q9Y2T6); test: GPR55 agonists via beta-arrestin recruitment, primary screen, imaging, U2OS cells, beta-arrestin-GFP redistribution (AID 1961); format: functional
# [10] = cytotoxicity toward NIH3T3 fibroblasts, dose response, counter-screen, cell-based, ATP luminescence, mouse fibroblasts (AID 2010); format: functional;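 note: cells exposed to compound for about 90 hours before reading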
# Vero [11] = test: cells; format: functional, cell-based; conditions: Chlorocebus sabaeus
# [12] = inhibitors of intracellular T. cruzi replication, confirmation, NIH3T3 host cells, beta-gal luminescence (AID 2044); format: functional, cell-based;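 note: intracellular parasites grown in NIH/3T3 mouse fibroblasts as host cells; luminescent beta-galactosidase reporter signal from transgenic T. cruzi replicating inside host cells; inhibitors lower the luminescence signal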
# Vero [13] = test: cells; format: functional; conditions: Chlorocebus sabaeus
# [14] = target: Phosphoethanolamine/phosphocholine phosphatase (Homo sapiens, UniProt Q8TCT1); test: SAR assay for compounds that inhibit PHOSPHO1. [Related pubchem assays (depositor defined):AID1545, AID1565, AID1574]
# Phosphomannomutase 2 = Phosphomannomutase 2 (Homo sapiens, UniProt O15305); test: Counter screen SAR assay for PMM2 inhibitors via a fluorescence intensity assay. [Related pubchem assays (depositor defined):AID1545, AID1574]
# Hexokinase = Hexokinase (Trypanosoma brucei, UniProt Q38C41); test: Confirmation assay for inhibitors of Trypanosoma brucei hexokinase 1-Analogue-first series. [Related pubchem assays (depositor defined):AID1430, AID1632, AID2516, AID2560, AID2579, AID2600, AID449725, AID492951]; format: functional
# [15] = Luminescence-based cell-based high throughput dose response assay to identify activators of the DAF-12 from the parasite S. stercoralis (ssDAF-12).; format: functional
# [16] = target: T5, Oxysterols receptor LXR-beta (Homo sapiens, UniProt P55055); test: LXR agonists, Gal4 luciferase reporter, dose response, counter-screen for ssDAF-12 agonist project, cell-based, luminescence, HEK293, S. stercoralis campaign (AID 720737); format: functional; conditions: read-out: IC50 (the source's name)
# T5 sequence (P55055 whole entry): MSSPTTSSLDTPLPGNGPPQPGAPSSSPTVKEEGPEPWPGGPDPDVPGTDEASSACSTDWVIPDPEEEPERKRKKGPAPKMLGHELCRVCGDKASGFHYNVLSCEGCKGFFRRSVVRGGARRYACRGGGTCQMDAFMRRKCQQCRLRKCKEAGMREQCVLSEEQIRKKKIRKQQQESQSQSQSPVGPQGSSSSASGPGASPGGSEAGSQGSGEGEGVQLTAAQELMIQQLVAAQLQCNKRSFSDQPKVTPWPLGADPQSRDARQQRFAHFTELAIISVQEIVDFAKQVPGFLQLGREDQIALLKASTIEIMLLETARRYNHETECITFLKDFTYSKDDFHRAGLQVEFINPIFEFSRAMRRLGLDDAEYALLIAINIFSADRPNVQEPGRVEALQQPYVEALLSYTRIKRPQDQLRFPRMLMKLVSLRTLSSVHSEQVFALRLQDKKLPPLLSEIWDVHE
# [17] = inhibition of K1F phage lysis, E. coli UTI89, bacterial capsule biogenesis inhibitors, alamar blue (AID 488966); format: functional
# HeLa = test: HeLa cell cytotoxicity, dose response, cytotoxicity control, 24 h, cherry-picked samples (AID 504726); format: functional, cell-based; conditions: Homo sapiens;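 note: potency for cytotoxicity as loss of luminescence signal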
# [18] = target: T6, Rac GTPase-activating protein 1 (Homo sapiens, UniProt Q9H0H5); test: MgcRacGAP GTPase-activating activity inhibitors, confirmation, biochemical, ADP Hunter fluorescence, primary and confirmatory (AID 624330); format: functional
# T6 sequence (Q9H0H5 whole entry): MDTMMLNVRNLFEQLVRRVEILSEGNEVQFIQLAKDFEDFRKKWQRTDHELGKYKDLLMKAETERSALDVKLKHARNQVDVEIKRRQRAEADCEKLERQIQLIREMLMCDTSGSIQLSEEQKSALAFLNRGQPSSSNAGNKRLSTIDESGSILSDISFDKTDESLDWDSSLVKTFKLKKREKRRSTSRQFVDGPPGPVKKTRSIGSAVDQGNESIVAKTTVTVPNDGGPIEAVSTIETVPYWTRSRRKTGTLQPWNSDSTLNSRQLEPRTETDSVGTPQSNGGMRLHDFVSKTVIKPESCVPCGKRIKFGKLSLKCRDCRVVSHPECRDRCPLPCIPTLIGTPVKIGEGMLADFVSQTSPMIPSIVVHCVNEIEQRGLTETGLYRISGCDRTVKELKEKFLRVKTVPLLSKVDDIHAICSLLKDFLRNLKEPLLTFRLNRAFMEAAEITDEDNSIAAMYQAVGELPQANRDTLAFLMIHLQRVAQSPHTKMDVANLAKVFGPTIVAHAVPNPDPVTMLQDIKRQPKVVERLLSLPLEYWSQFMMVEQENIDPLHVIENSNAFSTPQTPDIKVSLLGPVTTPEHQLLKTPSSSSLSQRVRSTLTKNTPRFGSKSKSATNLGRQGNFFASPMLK
# [19] = HeLa cell cytotoxicity, dose response, cytotoxicity control for MgcRacGAP inhibitor project (AID 624300); format: functional
# ORF 73 = target: T7, ORF 73 (Human herpesvirus 8, UniProt O40947); test: inhibitors of C-LANA binding to LBS DNA, dose response, biochemical, fluorescence polarization, cherry-picked samples (AID 504725); parameters: species or system Human gammaherpesvirus 8;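 note: fluorescence polarization of a labeled DNA duplex reporting LANA DNA binding; potency is for inhibitors that block LANA binding to the DNA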
# T7 sequence (O40947 whole entry): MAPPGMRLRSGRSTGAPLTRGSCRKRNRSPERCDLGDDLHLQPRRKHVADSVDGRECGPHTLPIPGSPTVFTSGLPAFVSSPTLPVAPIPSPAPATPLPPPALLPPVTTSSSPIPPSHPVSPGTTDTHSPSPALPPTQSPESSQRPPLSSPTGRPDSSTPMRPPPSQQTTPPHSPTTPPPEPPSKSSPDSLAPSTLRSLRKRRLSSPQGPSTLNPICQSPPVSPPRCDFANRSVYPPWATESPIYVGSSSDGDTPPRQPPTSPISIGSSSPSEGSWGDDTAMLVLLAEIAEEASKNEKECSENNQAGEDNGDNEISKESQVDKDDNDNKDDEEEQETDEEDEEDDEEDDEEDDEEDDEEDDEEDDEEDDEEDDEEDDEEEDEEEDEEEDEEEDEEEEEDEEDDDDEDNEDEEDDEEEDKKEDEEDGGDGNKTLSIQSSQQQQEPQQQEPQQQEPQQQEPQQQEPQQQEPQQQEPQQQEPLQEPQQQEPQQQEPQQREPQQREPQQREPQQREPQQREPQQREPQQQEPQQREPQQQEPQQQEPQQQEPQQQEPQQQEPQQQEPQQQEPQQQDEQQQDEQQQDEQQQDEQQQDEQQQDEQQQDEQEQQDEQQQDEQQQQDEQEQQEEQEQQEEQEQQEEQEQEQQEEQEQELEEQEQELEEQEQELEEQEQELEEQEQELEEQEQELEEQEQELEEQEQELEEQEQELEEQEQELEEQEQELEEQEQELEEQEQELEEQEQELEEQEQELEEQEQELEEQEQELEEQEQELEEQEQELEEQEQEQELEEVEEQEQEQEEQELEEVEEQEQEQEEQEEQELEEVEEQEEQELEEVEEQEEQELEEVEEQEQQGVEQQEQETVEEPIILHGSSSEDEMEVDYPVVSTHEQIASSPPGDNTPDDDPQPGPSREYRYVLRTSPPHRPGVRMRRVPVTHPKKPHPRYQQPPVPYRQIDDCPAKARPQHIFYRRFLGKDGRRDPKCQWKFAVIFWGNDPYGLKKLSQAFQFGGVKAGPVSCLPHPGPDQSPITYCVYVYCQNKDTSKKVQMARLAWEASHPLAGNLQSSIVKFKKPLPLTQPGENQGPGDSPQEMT
# [20] = target: Glutathione S-transferase omega-1 (Homo sapiens, UniProt P78417); test: GSTO1 inhibitor potency, recombinant enzyme, late-stage follow-up, biochemical, SE-Rh probe, in-gel fluorescence, powder samples, set 2 (AID 463142); format: functional
# [21] = target: Potassium voltage-gated channel subfamily KQT member 2 (Rattus norvegicus, UniProt O88943); test: retigabine-insensitive KCNQ2 potentiators, concentration-response, dose response, cell-based, retigabine-insensitive compounds (AID 2654); format: functional
# [22] = target: T4, G-protein coupled receptor 55; test: GPR55 antagonists blocking LPI-driven arrestin recruitment, primary screen, imaging, U2OS, beta-arrestin-GFP, LPI agonist (AID 2013); format: functional;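 note: antagonist potency measured as reduced agonist-driven arrestin aggregation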
# T4 sequence (Q9Y2T6 whole entry): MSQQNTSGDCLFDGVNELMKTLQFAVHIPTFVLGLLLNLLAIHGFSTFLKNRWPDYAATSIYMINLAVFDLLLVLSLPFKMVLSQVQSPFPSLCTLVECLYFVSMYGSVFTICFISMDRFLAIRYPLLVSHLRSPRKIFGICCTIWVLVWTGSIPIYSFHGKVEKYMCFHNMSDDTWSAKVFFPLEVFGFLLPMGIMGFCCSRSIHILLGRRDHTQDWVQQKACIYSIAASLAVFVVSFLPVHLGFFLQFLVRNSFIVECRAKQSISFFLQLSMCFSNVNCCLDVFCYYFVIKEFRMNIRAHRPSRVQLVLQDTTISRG
# T2 sequence (P41145 whole entry): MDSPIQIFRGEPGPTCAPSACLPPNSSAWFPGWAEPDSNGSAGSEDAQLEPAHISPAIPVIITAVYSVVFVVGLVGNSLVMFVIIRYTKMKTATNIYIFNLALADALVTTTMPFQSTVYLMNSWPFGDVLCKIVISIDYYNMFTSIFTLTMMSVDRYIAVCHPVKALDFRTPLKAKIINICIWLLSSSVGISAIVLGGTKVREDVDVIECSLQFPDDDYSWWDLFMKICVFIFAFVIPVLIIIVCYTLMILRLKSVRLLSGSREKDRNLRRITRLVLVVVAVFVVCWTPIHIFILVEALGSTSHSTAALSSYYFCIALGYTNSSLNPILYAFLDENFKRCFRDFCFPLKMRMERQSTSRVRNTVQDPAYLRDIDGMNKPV
# Sequence of Glutathione S-transferase omega-1 (P78417 whole entry): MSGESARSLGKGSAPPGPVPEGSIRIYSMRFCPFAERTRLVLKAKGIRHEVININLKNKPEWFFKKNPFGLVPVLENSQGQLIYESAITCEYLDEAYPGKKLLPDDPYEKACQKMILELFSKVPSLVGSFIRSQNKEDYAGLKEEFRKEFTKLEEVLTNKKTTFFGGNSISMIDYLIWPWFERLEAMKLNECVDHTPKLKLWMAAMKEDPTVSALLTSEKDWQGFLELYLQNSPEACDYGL
# Sequence of Alkaline phosphatase, placental type (P05187 whole entry): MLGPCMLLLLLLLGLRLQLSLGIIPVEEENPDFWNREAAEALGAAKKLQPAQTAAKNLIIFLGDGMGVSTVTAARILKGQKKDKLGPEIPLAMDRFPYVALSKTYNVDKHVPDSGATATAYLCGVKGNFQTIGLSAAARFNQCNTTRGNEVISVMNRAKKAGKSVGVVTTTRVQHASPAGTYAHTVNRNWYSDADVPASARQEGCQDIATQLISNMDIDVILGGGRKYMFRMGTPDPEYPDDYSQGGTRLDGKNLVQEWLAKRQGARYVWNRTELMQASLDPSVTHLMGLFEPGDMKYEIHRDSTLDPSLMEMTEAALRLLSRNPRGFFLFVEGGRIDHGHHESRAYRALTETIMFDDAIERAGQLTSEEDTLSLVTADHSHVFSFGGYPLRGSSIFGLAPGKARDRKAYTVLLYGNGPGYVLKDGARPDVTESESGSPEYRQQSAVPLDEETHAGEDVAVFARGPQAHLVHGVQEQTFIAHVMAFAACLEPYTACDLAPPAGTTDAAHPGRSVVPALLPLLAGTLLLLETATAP
# Sequence of Hexokinase (Q38C41 whole entry): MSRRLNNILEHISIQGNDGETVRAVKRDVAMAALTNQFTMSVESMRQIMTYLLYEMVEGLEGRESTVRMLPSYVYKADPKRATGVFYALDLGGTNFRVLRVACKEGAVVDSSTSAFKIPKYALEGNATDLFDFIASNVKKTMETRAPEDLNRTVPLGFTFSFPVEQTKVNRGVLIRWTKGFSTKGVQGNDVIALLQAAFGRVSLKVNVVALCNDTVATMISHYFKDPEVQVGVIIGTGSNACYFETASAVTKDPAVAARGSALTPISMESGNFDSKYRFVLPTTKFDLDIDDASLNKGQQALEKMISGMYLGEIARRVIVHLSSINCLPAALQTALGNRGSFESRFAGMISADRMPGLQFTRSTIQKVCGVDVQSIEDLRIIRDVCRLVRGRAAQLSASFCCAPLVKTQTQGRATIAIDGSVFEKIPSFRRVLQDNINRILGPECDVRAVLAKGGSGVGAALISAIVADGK
# Sequence of Potassium voltage-gated channel subfamily KQT member 2 (O88943 whole entry): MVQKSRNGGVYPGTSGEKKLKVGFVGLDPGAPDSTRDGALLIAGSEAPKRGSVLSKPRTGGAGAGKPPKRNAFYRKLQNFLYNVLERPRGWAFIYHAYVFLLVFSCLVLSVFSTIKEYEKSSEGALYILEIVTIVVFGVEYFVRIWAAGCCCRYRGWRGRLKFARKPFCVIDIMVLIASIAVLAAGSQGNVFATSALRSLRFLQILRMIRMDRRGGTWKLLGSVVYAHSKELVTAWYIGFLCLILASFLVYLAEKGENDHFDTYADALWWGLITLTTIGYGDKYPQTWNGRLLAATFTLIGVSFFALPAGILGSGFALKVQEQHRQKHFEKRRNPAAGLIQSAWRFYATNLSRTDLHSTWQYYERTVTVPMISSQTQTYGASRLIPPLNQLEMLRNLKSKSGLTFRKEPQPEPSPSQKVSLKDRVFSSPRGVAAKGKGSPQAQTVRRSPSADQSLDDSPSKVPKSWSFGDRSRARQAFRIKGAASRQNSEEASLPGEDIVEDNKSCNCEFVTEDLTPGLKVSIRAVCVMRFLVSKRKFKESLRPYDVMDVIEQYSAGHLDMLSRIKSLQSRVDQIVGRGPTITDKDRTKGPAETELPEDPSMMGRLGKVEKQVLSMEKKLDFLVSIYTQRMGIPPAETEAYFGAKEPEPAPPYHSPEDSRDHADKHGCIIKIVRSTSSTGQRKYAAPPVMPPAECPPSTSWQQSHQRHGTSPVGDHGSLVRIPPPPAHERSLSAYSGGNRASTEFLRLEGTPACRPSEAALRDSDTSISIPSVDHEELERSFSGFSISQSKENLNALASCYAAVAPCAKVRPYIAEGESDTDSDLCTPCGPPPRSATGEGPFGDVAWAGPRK
# Sequence of Caspase-7 (P55210 24-198 limits assumed): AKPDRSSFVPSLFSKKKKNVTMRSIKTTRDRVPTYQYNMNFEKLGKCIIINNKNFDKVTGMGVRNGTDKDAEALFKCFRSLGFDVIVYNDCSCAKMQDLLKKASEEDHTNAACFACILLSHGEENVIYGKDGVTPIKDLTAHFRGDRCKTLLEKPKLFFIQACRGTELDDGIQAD
# Sequence of Caspase-7 (P55210 207-303 limits assumed): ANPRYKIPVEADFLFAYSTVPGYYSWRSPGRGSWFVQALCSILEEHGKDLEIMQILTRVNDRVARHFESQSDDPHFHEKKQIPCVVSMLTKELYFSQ
# Sequence of Phosphoethanolamine/phosphocholine phosphatase (Q8TCT1 whole entry): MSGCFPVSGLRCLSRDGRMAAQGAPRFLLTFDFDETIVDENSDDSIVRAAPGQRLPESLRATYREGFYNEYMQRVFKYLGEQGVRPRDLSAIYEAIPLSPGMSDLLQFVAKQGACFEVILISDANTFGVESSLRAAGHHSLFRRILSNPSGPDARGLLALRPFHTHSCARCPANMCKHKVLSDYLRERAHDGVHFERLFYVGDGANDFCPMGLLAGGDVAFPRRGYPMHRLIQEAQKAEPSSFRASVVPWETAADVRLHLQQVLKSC
# Sequence of Beta-galactosidase (Q8VNN2 whole entry): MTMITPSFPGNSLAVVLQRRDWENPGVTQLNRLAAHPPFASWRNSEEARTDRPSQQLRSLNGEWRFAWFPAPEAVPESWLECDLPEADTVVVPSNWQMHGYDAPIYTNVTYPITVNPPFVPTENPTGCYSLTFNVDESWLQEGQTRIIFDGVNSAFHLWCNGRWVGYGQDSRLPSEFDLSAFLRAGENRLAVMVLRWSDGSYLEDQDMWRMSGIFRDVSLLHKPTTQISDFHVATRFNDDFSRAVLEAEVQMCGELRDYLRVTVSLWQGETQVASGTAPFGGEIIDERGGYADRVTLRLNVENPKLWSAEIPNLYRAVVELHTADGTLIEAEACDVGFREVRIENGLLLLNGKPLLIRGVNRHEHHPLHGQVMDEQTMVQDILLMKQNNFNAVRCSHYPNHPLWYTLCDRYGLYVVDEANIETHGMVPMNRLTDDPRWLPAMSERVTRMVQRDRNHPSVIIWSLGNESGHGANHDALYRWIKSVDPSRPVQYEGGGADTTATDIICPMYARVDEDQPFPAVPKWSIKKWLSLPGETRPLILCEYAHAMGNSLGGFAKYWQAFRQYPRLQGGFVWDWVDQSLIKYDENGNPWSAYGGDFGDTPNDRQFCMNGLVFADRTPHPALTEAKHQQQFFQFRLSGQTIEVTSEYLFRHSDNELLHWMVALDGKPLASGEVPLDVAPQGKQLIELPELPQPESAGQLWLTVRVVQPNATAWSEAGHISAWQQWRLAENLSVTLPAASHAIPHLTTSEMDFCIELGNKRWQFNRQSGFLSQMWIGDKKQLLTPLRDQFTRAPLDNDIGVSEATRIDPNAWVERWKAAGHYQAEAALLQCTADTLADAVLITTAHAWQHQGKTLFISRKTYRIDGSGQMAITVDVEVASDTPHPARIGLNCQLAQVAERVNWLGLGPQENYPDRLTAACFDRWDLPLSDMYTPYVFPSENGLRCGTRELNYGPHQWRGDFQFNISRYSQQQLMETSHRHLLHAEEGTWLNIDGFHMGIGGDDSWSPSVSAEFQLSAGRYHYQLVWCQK
# Sequence of Phosphomannomutase 2 (O15305 whole entry): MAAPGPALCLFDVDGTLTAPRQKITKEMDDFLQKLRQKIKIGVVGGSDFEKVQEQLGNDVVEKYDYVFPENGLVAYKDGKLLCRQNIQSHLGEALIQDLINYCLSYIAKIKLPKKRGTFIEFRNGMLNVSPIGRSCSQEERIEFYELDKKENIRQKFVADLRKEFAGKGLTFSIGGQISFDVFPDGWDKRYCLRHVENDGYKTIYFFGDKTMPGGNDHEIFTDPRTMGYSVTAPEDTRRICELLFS
compound,measurement,setting,value
C=CCN1C(=O)/C(=N\Nc2ccccc2O)c2ccccc21,IC50,[1],> 100 µM (inactive)
same,IC50,[2],> 100 µM (inactive)
same,IC50,[3],> 100 µM (inactive)
CC(C)(C)NC(=O)C(=O)NNC(=O)c1ccc(C(C)(C)C)cc1,IC50,cells,19.4 µM (active)
same,CC50,[4],> 40 µM (active)
same,IC50,[5],> 31.5 µM (inactive)
same,EC50,Beta-galactosidase,> 31.5 µM (inactive)
same,IC50,[6],> 32 µM
same,CC50,[7],> 40 µM (active)
COc1ccc(-c2sc3ccc(OC)cc3c2C#Cc2ccccn2)cc1,EC50,Caspase-3,> 85.2 µM (inactive)
same,AC50,[8],3 µM (active)
same,EC50,Caspase-7,> 85.2 µM (inactive)
Cc1ccc(C(=O)C(C(=O)/C=C/c2ccccc2)=C2SCCCS2)cc1,EC50,[9],3.63 µM (active)
same,EC50,[10],10.3 µM (active)
same,AC50,[8],1.24 µM (active)
same,IC50,Vero [11],7.69 µM (active)
same,EC50,[12],0.99 µM (active)
same,CC50,Vero [13],> 25 µM (active)
O=c1c2ccc(F)cc2sn1-c1cccc(Cl)c1Cl,IC50,[14],0.359 µM (active)
same,IC50,Phosphomannomutase 2,> 100 µM (inactive)
same,IC50,[3],> 50 µM (inactive)
O=c1c2ccc(F)cc2sn1Cc1ccccc1,IC50,Hexokinase,> 25 µM (inactive)
CNc1c2cccc(C)c2nc2c(C(=O)NCCN(C)C)cccc12,IC50,[15],> 67.5 µM (inactive)
same,EC50,[16],> 67.5 µM (inactive)
same,IC50,[17],> 150 µM (active)
same,AC50,HeLa,1.01 µM (active)
same,IC50,[18],34.6 µM (active)
same,CC50,[19],3.39 µM (active)
same,AC50,ORF 73,5.35 µM (active)
O=C(NC1CCCCC1)C(c1cccnc1)N(C(=O)CCl)c1ccc(Cl)c(Cl)c1 (configuration not stated),IC50,[20],0.045 µM (active)
O=C(Nc1ccc(Br)nc1)Nc1cccc(F)c1,EC50,[21],4.04 µM (active)
CCOC(=O)C1=C(C)N=C(C)/C(=C(\O)OCC)C1c1ccc(Br)o1 (configuration not stated),IC50,[22],2.42 µM (active)
